The values that follow come from a melting point compilation (Tetko et al.; mined from patent text by program, amines drawn as free bases though some values may be those of a salt).

Take `CC(=O)c1ccc(OCCCOc2cc(N)c(C)cc2Cl)c(CCC(F)(F)F)c1O`: the melting point (usually the temperature of the solid-liquid transition) was 111 to 113 °C.

For the compound `CCOC(=O)Cc1cccc(Sc2ccccc2Cl)c1[N+](=O)[O-]`, the melting point lay within 78 to 80 °C.

For `CC(C)(C)OC(=O)N1CCCCc2ccc(Cl)nc21`, the melting point was in the range of 166 to 168 °C.

`COCOc1ccc(-c2ccc3c(c2)C=C(C(=O)Nc2ccc(CN(C)C4CCOCC4)cc2)CCS3(=O)=O)cc1` registered a melting point of 227 to 229 °C.

As for `Cc1ccccc1-c1noc2c(Cl)c(OCC(=O)O)ccc12`, the melting point is 179 to 181 °C.

Compound `O=C(c1c(Cl)cccc1Cl)P(=O)(c1ccccc1)c1ccccc1` displayed a melting point of 156 to 158 °C.

`CCOP(=O)(C/C=C\CC1(C(=O)NCC(F)(F)F)c2ccccc2-c2ccccc21)OCC` returned a melting point of 88 to 91 °C.

Compound `COc1cc(N)c(Cl)cc1C(=O)NC1CCN(CCC(O)C(=O)c2ccc(F)cc2)CC1OC` (stereo not given) returned a melting point of 146 °C.

Consider `CC(=O)c1cccc2c1Oc1c(C(C)=O)cccc1N2[Si](C)(C)C(C)(C)C`, for which the melting point worked out at 146 °C.

For `O=Cc1cccn1Cc1ccccc1[N+](=O)[O-]`, the melting point lay within 128 to 132 °C.

With `CC1Cc2cc3c(cc2C(c2ccc([N+](=O)[O-])cc2)=NN1c1nnns1)OCO3` (stereo not given), the melting point fell in the range of 109 to 110 °C.

`CCCN1CCCC1Cc1cccc(NC(N)=O)c1` (stereo not given) had a melting point of 101 to 104 °C.

In turn, `Clc1ccc(Cl)c(CN2CCNc3ncc(C4=CCNCC4)cc32)c1` returned a melting point of 133 to 136 °C.

With `CN1Cc2cncn2-c2ccccc2C1=O`, the melting point was in the range of 212 to 213 °C.

In turn, `CCOC(=O)c1sc2cc(OCc3ccccc3)ccc2c1Cl` had a melting point of 98 to 100 °C.

For the compound `COc1cc2c(c(OC)c1OC)CC(N1CCC(n3c(=O)[nH]c4ccccc43)CC1)C2=O` (stereo not given), the melting point lay within 197 to 199 °C.

`CCOCCn1c(CN2CCCN(C)CC2)nc2ccccc21`: the melting point fell in the range of 119 to 122 °C.

Compound `O=C(O)Cc1ccc(C(=O)C2CCCCC2)cc1` registered a melting point of 94 to 95.5 °C.

The compound `CCCCCCCCCCCCCCCCCCS(=O)(=O)c1ccc(C)cc1` gave a melting point of 79 to 80 °C.

Take `CCOC(=O)c1cc2nc(C(F)(F)F)ccc2n1Cc1ccncc1`: the melting point lay in the range of 130 to 131 °C.

On to `Cc1oc(-c2ccccc2)nc1COc1ccc(/C=C/CO)cn1`, for which the melting point lay in the range of 116 to 117 °C.

Consider `CCc1cc2[nH]ccc(=O)c2c(CC)n1`, for which the melting point is 207 to 208 °C.

`CCOCCn1nc(-c2cc(C(C)(C)C)c(O)c(C(C)(C)C)c2)c2cccnc21` showed a melting point of 86 to 88 °C.

As to `Cc1ccsc1C(=O)N1CCC(Sc2ccc(CCNC[C@H](O)COc3ccc(O)cc3)cc2)CC1`, the melting point lay within 135 to 144 °C.

For `C[C@@H]1COC(=O)N1c1nc(-c2cccc(C#N)c2)cs1`, the melting point was in the range of 187 to 189 °C.

Compound `CC1(C)CC(=O)C(C(=O)c2ccc(Cl)cc2[N+](=O)[O-])C(=O)N1` (stereo not given) yielded a melting point of 162 °C.

With `C[C@H](NC(=O)CC(Br)C(=O)c1ccc(Br)cc1)C(=O)O` (stereo not given in full), the melting point was in the range of 110 to 113 °C.

Compound `CCCCC1CCC(C2=C(Cl)C(=O)c3ccccc3C2=O)CC1` (stereo not given) gave a melting point of 107 to 110 °C.

`CN1C(=O)N(CCC(NS(=O)(=O)c2ccc(-c3ccc(Cl)cc3)cc2)C(=O)NO)C(=O)C1(C)C` (stereo not given) gave a melting point of 117 to 120 °C.

Take `CC(=O)ON1C(C)(C)CC(OC(=O)NCCCCCCNC(=O)OC2CC(C)(C)N(OC(C)=O)C(C)(C)C2)CC1(C)C`: the melting point was in the range of 158 to 163 °C.

Turning to `O=C1NC(=O)C(=Cc2ccc(N3CCC(NC[C@H](O)COc4ccccc4)CC3)cc2)S1`, the melting point was 208 to 210 °C.

The compound `O=C(NC1CCCCC1)NS(=O)(=O)c1ccc(CCNC(=O)N2CCC3=C(CCCC3)C2=O)cc1` displayed a melting point of 176 to 177 °C.

For the compound `O=C(c1ccc(F)cc1)c1ccc(C(c2ccc(C(=O)c3ccc(F)cc3)cc2)(C(F)(F)F)C(F)(F)F)cc1`, the melting point is 142 to 143 °C.

Turning to `COc1cc2cc(CC(C)C)sc2c(Cl)c1Cl`, the melting point lay within 40 to 41 °C.

`CCc1nc(/C=C/c2cn(-c3ccccc3)nc2OCc2ccc(OCc3nc(-c4cccc(-c5noc(=O)[nH]5)c4)oc3C)c(OC)c2)cs1` showed a melting point of 139 to 140 °C.

Compound `COc1cc([N+](=O)[O-])c(NC(C)=O)cc1OC(F)F` registered a melting point of 116 to 117 °C.

As for `Cc1cc(-c2cc(C(F)(F)F)nn2-c2ccc(S(C)(=O)=O)c(F)c2)ccc1-c1cscn1`, the melting point fell in the range of 112 to 114 °C.

In the case of `O=c1oc2ccc(O)cc2c(O)c1-c1ccccc1`, the melting point lay within 261 to 263 °C.

In turn, `Oc1ccccc1-c1nc(-c2ccccc2O)n(Cc2ccncc2)n1` showed a melting point of 197 to 199 °C.

On to `CC(Br)c1ccc(-n2nccn2)cn1` (stereo not given), for which the melting point lay within 72 to 73 °C.

`N#CC1=C2C(=NC1=O)c1c(OCc3cccs3)ccc3cccc2c13` gave a melting point of 241 to 243 °C.

With `COc1ccc(-c2nc3cc(F)ccc3s2)cc1OC(C)=O`, the melting point came out at 190 °C.

`Cc1cccc(C)c1Sc1c(O)cc(-c2ccccc2)oc1=O`: the melting point fell in the range of 248 to 249 °C.

In the case of `O=c1ccc2cc(C(c3ccccc3)n3ccnc3)ccc2[nH]1` (stereo not given), the melting point was 227 °C.

As for `CONc1ccc([N+](=O)[O-])cc1[N+](=O)[O-]`, the melting point is 110 to 112 °C.

The compound `Cc1cccc2nc(C)n(C3CCC(=O)NC3=O)c(=O)c12` (stereo not given) had a melting point of 292 to 294 °C.

Consider `O=C(NN1CCOCC1)c1ccc(O)c(Br)c1`, for which the melting point lay in the range of 216 to 218 °C.

`COC(=O)c1c(Sc2ccc(Cl)cc2)c2cc(C)ccc2n1C`: the melting point lay within 110 to 111 °C.

For the compound `Nc1cc(Br)cc(OCc2ccccc2)c1NC(=O)C1CC1`, the melting point was in the range of 207 to 208 °C.

`O=C(O)C1=Cc2cc(Cl)cc(F)c2OC1C(F)(F)F` (stereo not given) registered a melting point of 191 to 193 °C.

In turn, `CCCCOC(=O)n1nc(-c2cccc(Br)c2)ccc1=O` displayed a melting point of 126 to 129 °C.

As for `Nc1c(F)cc(F)c(-n2cc(C(=O)O)c(=O)c3cc(F)c(N4CC[C@H](N)C4)nc32)c1F`, the melting point is 273 to 277 °C.

`COc1ccn2nc(SCc3ccccc3)nc2n1` had a melting point of 126 to 128 °C.

In turn, `NC(=O)Nc1cccc(CS(=O)(=O)O)c1` returned a melting point of 180 to 187 °C.

With `CS(=O)(=O)c1ccc(-n2nc(C(F)(F)F)cc2-c2ccc(-c3cocn3)cc2)cc1`, the melting point fell in the range of 175 to 177 °C.

For the compound `CC1(C)OC2C(Br)=CC(CC(N)=O)C(Br)C2O1` (stereo not given), the melting point was found to be 181 °C.

Compound `CC(=O)Nc1cnc(N2CCN(CCCC(=O)c3ccc(F)cc3)CC2)cc1NC(C)=O` had a melting point of 206 to 209 °C.

Compound `CC(C)(COc1ccc2nccn2n1)CS(N)(=O)=O` gave a melting point of 165 to 167 °C.

Take `COc1ccc(C(O)(Cc2ccncc2)c2ccccc2)c2c1OC(C)(C)C2` (stereo not given): the melting point lay in the range of 78 to 81 °C.

Compound `CCC1(CCO)C(=O)N2CC=CC(C(=O)OC)N2C1=O` (stereo not given) showed a melting point of 87 to 92 °C.

As to `CCOC(=O)c1cnc2sccc2c1Sc1nnc(C)s1`, the melting point was in the range of 93 to 94 °C.

`C[Si](C)(C)CCOCn1ccnc1-c1c(N)n(CC2CC2)c2nc(Cl)ccc2c1=O`: the melting point was 70 °C.

`CS(=O)(=O)c1ccc(-c2[nH]nc(C(=O)CCCO[N+](=O)[O-])c2-c2ccc(C#N)cc2)cc1` displayed a melting point of 148 to 149 °C.

With `N#Cc1cc(C(N)=O)ccc1Cl`, the melting point is 193 °C.

On to `N#Cc1c(I)c(C(=O)Cl)c(I)c(C(=O)NCC(O)CO)c1I` (stereo not given), for which the melting point was in the range of 285 to 288 °C.

In turn, `Clc1ccc(NNc2ccc(Cl)cc2)cc1` had a melting point of 120 to 121 °C.

For `Cn1nnc2c(N3CCOCC3)nc(-c3ccc(NC(=O)Nc4cccnc4)cc3)nc21`, the melting point was found to be 272 °C.

`Cc1noc(NS(=O)(=O)c2nccs2)c1Cl` showed a melting point of 171 to 173 °C.

Compound `O=C(Nc1ccc(F)cc1)OCC1CSC2=C(O1)c1ccccc1C(=O)C2=O` (stereo not given) had a melting point of 235 to 237 °C.

`O=S(=O)(NCCc1ccncc1)c1ccc(Br)s1` returned a melting point of 133 to 134 °C.

The compound `CCOC(=O)C1=C(C)NC(C)=C(C(=O)OCC)C1c1ccc(Br)cc1F` came in with a melting point of 154 to 155 °C.

As to `CCCCNC(=O)Oc1cccc(NC(=O)C=C(C)OC)c1`, the melting point came out at 166 °C.

`COc1c(F)ccc2ccc(Cl)nc12` came in with a melting point of 85 to 86 °C.

Consider `N#Cc1ccc(NC(=S)Nc2ccc(NNC=O)cc2)cc1`, for which the melting point fell in the range of 180 to 182 °C.

Regarding `CS(=O)(=O)c1ccc(-n2ncc(C#N)c2-c2ccc(-c3ccco3)cc2)cc1F`, the melting point was in the range of 153 to 157 °C.

Regarding `Cc1nc(-c2ccc(C(F)(F)F)cc2)sc1CSc1ccc(CC(=O)O)cc1`, the melting point is 202 to 203 °C.

In turn, `Cc1cc(Br)cc(-c2ccc3c(c2)C(C)(C)OC(=O)N3)c1` had a melting point of 231 to 233 °C.

`Cc1ccc(Cc2cc(C)c(C)c(=O)n2O)c(C)c1` showed a melting point of 141 °C.

Take `CCn1nc(-c2cccc(Cl)c2)c(C(C)=O)c(Nc2cccc3cccnc23)c1=O`: the melting point lay within 127 to 128 °C.

In turn, `CCC(=NNC(=O)c1cccc(C(F)(F)F)c1)c1cccnc1` came in with a melting point of 119 °C.

In the case of `C#CCOc1cc(Oc2c(F)cccc2F)ncn1`, the melting point was 67.2 °C.

The compound `CCCOc1ccccc1C1=NC(=O)C2=NC(S)=NC2=N1` gave a melting point of 305 to 307 °C.

Turning to `O=C1c2cc(Cl)c(Cl)cc2C(=O)N1CCN1CCC(c2noc3cc(F)ccc23)CC1`, the melting point is 132 to 134 °C.

On to `Cc1nc(CCOc2ccc([N+](=O)[O-])cc2)c(C)o1`, for which the melting point was 97 to 98 °C.

Take `O=C1Nc2ccc(Cl)cc2C1(Cl)c1cccc2c1OCO2` (stereo not given): the melting point was 241 °C.

For the compound `CCOC(=O)CN1Cc2ccccc2C[C@H](NC(=O)OCc2ccccc2)C1=O`, the melting point lay in the range of 80 to 82 °C.

For the compound `C=C(C)c1ccc(-c2ccc(C(=C)C)cc2)cc1`, the melting point is 182 °C.

Take `CCOC(CCP(=O)(OCC)OCC)(C(=O)c1ccccc1)c1ccccc1` (stereo not given): the melting point is 75 °C.

As to `CSc1ccc2c(c1)C(O)(C1CCN(C)CC1)c1ccc(F)cc1S2` (stereo not given), the melting point is 180 to 189 °C.

`CC(C)(C)OC(=O)N1CCC=C(c2ccnc(C(=O)N(O)Cc3ccccc3)c2)C1` had a melting point of 128 to 134 °C.
